In patent publication US20260242336A1, “COMPOSITION FOR PREVENTING OR TREATING CANCER DISEASES COMPRISING ARYL-PIPERIDINE DERIVATIVE” (KOREA RESEARCH INSTITUTE OF CHEMICAL TECHNOLOGY, priority 2023, published 2026):
Where a name gives a salt, the structure may show the parent alone.

Assays:
TNKS-1 = molecular target: T1, TNKS-1 (Homo sapiens, UniProt O95271); assay: TNKS1 Histone Ribosylation Colorimetric Assay Kit (tankyrase-1 colorimetric activity assay); assay type: biochemical; conditions: for inhibition at 10 µM: read-out: TNKS-1 inhibitory activity (10 μM), 10 μM compound
T1 construct: purchased BPS Bioscience 80582
T1 sequence (O95271 1-1327): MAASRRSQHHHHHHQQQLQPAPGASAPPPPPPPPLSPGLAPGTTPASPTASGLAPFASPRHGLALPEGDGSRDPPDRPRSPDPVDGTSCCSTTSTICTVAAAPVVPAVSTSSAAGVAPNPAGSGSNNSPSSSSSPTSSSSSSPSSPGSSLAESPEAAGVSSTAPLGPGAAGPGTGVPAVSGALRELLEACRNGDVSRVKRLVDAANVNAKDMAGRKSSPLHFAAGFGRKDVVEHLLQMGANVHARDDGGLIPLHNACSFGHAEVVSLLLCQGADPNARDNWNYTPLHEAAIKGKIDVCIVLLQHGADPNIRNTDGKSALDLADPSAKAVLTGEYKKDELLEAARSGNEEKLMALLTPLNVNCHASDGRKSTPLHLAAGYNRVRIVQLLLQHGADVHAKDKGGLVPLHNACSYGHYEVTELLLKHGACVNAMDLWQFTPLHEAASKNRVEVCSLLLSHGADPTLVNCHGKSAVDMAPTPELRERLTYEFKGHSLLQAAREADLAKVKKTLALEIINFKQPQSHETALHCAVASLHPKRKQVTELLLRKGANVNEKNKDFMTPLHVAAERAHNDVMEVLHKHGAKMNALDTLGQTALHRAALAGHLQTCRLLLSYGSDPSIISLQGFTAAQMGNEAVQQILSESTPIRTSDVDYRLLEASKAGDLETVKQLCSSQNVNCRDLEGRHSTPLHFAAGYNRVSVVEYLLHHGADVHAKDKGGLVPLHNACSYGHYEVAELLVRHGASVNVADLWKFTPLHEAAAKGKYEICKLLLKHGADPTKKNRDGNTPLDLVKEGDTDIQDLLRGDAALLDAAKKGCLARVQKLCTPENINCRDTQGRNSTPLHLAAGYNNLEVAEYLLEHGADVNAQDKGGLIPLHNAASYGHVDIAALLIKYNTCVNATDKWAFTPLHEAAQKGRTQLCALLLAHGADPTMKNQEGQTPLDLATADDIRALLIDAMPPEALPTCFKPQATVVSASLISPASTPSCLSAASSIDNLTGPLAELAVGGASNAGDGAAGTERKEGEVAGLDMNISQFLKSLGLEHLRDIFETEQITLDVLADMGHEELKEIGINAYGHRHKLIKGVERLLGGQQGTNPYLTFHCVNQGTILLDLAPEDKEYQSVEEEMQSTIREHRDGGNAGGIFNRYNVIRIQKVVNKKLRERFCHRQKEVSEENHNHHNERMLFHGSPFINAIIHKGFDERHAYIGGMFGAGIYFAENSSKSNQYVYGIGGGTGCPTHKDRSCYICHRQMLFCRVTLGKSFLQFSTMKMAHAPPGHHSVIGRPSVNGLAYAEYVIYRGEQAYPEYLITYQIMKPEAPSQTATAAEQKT

PARP-2 = PARP-2 (Homo sapiens, UniProt Q9UGN5); assay: PARP-2 enzymatic activity inhibition; assay type: biochemical
[1] = tested on: activated beta-catenin proteins; assay: Western blotting of activated beta-catenin protein in colon cancer cell lines; assay type: cell-based, human; conditions: COLO320DM and SW403, 10 μM, 24 hours
Excerpt: (§1) After protein extraction, proteins were quantified through Western blotting (Bio-Rad, USA).

PARP-1 = molecular target: T2, PARP-1 (Homo sapiens, UniProt P09874); assay: PARP-1 colorimetric activity assay kit; assay type: biochemical; conditions: for inhibition of enzymatic activity of PARP-1 (in words): 1 μM
T2 construct: purchased BPS Bioscience 80580

[2] = tested on: colon cancer cell line COLO320DM; assay: Cell viability by colony counting after co-treatment with 5-FU; assay type: cell-based; conditions: Homo sapiens, COLO 320DM, 240 h, 10 days, read-out: cell viability inhibited when co-treated with 5-FU, compared to the sole treatment; for cytotoxicity at 5 µM: 5 μM compound + 0.5 μM 5-FU; for cytotoxicity at 10 µM: 10 μM compound + 0.5 μM 5-FU
Method: Each cell line was purchased from the American Type Culture Collection (ATCC) and cultured respectively in RPMI 1640 (Roswell Park Memorial Institute 1640) medium supplemented with 10% fetal bovine serum (FBS), 100 μg/ml streptomycin, and 100 units/ml penicillin in the presence of 5% CO2 at 37° C.
Afterwards, the cell viability was identified by counting the number of colonies by staining with 1.5% methylene blue.

AXIN2 protein = assay: Western blotting of AXIN2 protein in colon cancer cell lines; assay type: cell-based, human; conditions: COLO320DM and SW403, 10 μM, 24 hours
Excerpt: as §1

[3] = tested on: colon cancer cell line COLO320DM; assay: Cell viability by colony counting (methylene blue staining); conditions: 10 days; for cell viability (in words): 2.5 μM to 40 μM; for cell viability inhibited: 40 μM
[4] = tested on: beta-catenin transcriptional activity; assay: TCF/luciferase assay of beta-catenin transcriptional activity in HEK cells; assay type: cell-based; conditions: Homo sapiens, HEK293, read-out: β-catenin IC50 in HEK cells
Method: To determine whether beta-catenin transcriptional activity is inhibited by the aryl-piperidine derivative compounds, compounds TI-61815 and TI-61910 were treated at various concentrations and examined in HEK cells using the TCF/luciferase assay system.

[5] = tested on: beta-catenin subgenes (AXIN2, CCND1, cMYC, FGF20); assay: Real-time PCR of beta-catenin subgene expression; assay type: cell-based, human; conditions: COLO320DM, 10 μM, 24 hours
Excerpt: After RNA extraction, cDNA was synthesized to quantify gene expression via real-time PCR.

TNKS-2 = molecular target: T3, TNKS-2 (Homo sapiens, UniProt Q9H2K2); assay: TNKS-2 enzymatic activity inhibition; assay type: biochemical
T3 sequence (Q9H2K2 1-1166): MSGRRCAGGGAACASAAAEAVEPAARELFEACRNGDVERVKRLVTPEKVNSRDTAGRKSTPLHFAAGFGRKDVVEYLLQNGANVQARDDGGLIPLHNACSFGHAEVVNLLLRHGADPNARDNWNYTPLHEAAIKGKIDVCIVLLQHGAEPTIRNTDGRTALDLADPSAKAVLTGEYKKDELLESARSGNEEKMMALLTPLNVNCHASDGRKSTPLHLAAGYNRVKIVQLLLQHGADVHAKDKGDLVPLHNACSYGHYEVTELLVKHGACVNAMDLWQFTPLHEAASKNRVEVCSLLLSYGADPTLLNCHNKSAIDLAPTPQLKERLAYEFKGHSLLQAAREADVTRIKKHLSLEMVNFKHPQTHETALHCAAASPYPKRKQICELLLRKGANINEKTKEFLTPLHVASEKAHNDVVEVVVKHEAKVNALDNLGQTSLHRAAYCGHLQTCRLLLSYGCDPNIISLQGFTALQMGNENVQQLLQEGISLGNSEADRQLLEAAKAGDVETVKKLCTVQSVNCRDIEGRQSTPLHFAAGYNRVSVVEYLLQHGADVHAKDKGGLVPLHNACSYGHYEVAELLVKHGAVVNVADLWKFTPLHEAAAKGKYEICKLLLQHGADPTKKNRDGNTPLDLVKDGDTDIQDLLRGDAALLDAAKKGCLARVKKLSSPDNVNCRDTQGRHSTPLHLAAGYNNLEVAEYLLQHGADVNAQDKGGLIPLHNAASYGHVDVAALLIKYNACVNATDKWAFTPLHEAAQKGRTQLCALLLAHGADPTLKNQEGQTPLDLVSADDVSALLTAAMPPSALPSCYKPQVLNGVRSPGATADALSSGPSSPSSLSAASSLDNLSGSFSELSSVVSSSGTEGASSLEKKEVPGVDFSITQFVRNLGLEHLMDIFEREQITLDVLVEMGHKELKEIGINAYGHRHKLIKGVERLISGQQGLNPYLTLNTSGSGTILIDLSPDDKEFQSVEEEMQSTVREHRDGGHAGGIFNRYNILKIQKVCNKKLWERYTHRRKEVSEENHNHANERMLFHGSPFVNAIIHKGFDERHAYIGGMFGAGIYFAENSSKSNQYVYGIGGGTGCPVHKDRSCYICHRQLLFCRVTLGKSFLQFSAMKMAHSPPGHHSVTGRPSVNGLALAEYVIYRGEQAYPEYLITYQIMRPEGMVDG

T2 sequence (P09874 whole entry): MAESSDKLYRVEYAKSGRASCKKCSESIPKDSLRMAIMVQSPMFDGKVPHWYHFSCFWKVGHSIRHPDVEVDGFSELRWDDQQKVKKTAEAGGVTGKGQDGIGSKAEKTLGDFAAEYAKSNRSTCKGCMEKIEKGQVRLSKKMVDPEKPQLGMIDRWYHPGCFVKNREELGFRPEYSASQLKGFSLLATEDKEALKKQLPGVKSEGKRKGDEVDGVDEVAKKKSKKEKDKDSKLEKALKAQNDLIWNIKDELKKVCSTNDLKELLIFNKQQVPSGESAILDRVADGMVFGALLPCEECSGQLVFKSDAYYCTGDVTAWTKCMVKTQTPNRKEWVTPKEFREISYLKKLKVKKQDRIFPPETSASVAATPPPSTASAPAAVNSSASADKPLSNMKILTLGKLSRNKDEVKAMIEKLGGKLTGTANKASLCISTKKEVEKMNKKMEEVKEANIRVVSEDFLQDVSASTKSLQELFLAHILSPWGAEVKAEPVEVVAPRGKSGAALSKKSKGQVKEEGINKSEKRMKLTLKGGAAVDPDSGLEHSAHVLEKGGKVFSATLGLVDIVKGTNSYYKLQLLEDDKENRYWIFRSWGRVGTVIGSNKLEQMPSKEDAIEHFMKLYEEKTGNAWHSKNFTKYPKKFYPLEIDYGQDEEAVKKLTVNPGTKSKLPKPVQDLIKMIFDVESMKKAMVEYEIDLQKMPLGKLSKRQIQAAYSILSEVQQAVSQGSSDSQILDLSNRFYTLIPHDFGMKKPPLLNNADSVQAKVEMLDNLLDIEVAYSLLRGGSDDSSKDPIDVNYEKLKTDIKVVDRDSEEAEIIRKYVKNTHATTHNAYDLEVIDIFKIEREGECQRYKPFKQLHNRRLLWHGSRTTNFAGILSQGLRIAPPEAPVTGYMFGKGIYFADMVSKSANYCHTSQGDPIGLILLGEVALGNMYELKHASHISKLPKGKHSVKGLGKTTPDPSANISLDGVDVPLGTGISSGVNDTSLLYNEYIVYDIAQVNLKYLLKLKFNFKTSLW
Sequence of PARP-2 (Q9UGN5 whole entry): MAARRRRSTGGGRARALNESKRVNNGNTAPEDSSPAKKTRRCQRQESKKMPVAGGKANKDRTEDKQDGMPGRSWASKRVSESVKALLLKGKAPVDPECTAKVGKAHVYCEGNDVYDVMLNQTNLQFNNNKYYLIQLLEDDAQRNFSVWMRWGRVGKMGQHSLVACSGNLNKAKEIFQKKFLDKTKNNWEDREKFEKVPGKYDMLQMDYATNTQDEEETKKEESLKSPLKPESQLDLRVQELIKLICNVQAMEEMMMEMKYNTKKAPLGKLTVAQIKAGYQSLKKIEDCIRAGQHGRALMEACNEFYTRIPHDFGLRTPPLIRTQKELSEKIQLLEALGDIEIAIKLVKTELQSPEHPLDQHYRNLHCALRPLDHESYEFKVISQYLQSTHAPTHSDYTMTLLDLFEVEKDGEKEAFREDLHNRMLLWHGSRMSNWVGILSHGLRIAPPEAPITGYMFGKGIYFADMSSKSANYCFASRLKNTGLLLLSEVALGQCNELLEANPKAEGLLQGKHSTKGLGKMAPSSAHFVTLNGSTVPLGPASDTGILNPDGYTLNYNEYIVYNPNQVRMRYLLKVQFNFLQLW

O=C(CCC1CCN(c2cccc([N+](=O)[O-])c2)CC1)Nc1nnc2ccccn12 [TI-62189]
inhibition at 10 µM (TNKS-1): 100%

CC(C)(C)OC(=O)N(CC(=O)Nc1nnc2ccccn12)C1CCN(c2ccccc2C#N)CC1 [TI-62197, tert-Butyl(2-([1,2,4]triazolo[4,3-a]pyridin-3-ylamino)-2-oxoethyl)(1-(2-cyanophenyl)piperidin-4-yl) carbamate]
inhibition at 10 µM (TNKS-1): 3 ± 0.9%

N#Cc1ccccc1N1CCC(CC(=O)Nc2nnc3ccccn23)CC1 [TI-61815, N-([1,2,4]triazolo[4,3-a]pyridin-3-yl)-2-(1-(2-cyanophenyl)piperidin-4-yl)acetamide]
IC50 (PARP-2): 6060 nM | levels of the activated beta-catenin proteins [1]: inhibited levels of the activated beta-catenin proteins | IC50 (PARP-1): 7540 nM | inhibition of enzymatic activity of PARP-1 (in words) (PARP-1): almost no decrease in the inhibition of enzymatic activity of PARP-1 | cytotoxicity at 5 µM [2]: 12.4% | cytotoxicity at 10 µM [2]: 27.8% | AXIN2 protein levels (AXIN2 protein): stabilization of AXIN2 protein levels | cell viability (in words) [3]: decreased in a concentration-dependent manner | cell viability inhibited [3]: 61.4% | IC50 [4]: 830 nM | IC50 (TNKS-1): 64 nM | inhibition at 10 µM (TNKS-1): ≥ 95% | expression levels of beta-catenin subgenes (AXIN2, CCND1, cMYC, FGF20) [5]: inhibited the expression levels of beta-catenin subgenes | IC50 (TNKS-2): 49 nM

N#Cc1ccccc1N1CCC(CC(=O)Nc2cnc3cccnn23)CC1 [TI-61816, 2-(1-(2-cyanophenyl)piperidin-4-yl)-N-(imidazo[1,2-b]pyridazin-3-yl)acetamide]
inhibition at 10 µM (TNKS-1): 5 ± 1.2%

O=C(CCC1CCN(c2ccc([N+](=O)[O-])cc2)CC1)Nc1nnc2ccccn12 [TI-62190]
inhibition at 10 µM (TNKS-1): 96 ± 0.2%

O=C(CCC1CCN(c2ccc([N+](=O)[O-])cc2[N+](=O)[O-])CC1)Nc1nnc2ccccn12 [TI-62195]
inhibition at 10 µM (TNKS-1): ≥ 95%

N#Cc1ccccc1N1CCC(CCC(=O)Nc2cnc3ccccn23)CC1 [TI-62122, 3-(1-(2-cyanophenyl)piperidin-4-yl)-N-(imidazo[1,2-a]pyridin-3-yl)propanamid]
inhibition at 10 µM (TNKS-1): 10 ± 0.9%

N#Cc1ccccc1N1CCC(NCC(=O)Nc2nnc3ccccn23)CC1 [TI-62198, N-([1,2,4]triazolo[4,3-a]pyridin-3-yl)-2-((1-(2-cyanophenyl)piperidin-4-yl)amino)acetamide trifluoroacetic acid salt]
inhibition at 10 µM (TNKS-1): 72 ± 0.3%

N#Cc1ccc(N2CCC(CCC(=O)Nc3nnc4ccccn34)CC2)cc1 [TI-62194]
inhibition at 10 µM (TNKS-1): 100%

O=C(CCC1CCN(c2ccccc2[N+](=O)[O-])CC1)Nc1nnc2ccccn12 [TI-62188, N-([1,2,4]triazolo[4,3-a]pyridin-3-yl)-3-(1-(2-nitrophenyl)piperidin-4-yl)propanamide]
inhibition at 10 µM (TNKS-1): ≥ 95%

N#Cc1ccccc1N1CCC(CCCC(=O)Nc2nnc3ccccn23)CC1 [TI-62116, N-([1,2,4]triazolo[4,3-a]pyridin-3-yl)-4-(1-(2-cyanophenyl)piperidin-4-yl)butanamide]
inhibition at 10 µM (TNKS-1): 99 ± 0.1%

N#Cc1ccccc1N1CCC(CCC(=O)Nc2cnc3cccnn23)CC1 [TI-62121, 3-(1-(2-cyanophenyl)piperidin-4-yl)-N-(imidazo[1,2-b]pyridazin-3-yl)propanamide]
inhibition at 10 µM (TNKS-1): 17 ± 1.5%

N#Cc1ccccc1N1CCC(CCC(=O)Nc2nnc3ccccn23)CC1 [TI-61910, N-([1,2,4]triazolo[4,3-a]pyridin-3-yl)-3-(1-(2-cyanophenyl)piperidin-4-yl)propanamide]
IC50 (PARP-2): > 10000 nM | levels of the activated beta-catenin proteins [1]: inhibited levels of the activated beta-catenin proteins | IC50 (PARP-1): > 10000 nM | inhibition of enzymatic activity of PARP-1 (in words) (PARP-1): almost no decrease in the inhibition of enzymatic activity of PARP-1 | cytotoxicity at 2.5 µM ([2]; 2.5 μM compound + 0.5 μM 5-FU): 26% | cytotoxicity at 5 µM [2]: 28.3% | cytotoxicity at 10 µM [2]: 35.5% | AXIN2 protein levels (AXIN2 protein): stabilization of AXIN2 protein levels | cell viability (in words) [3]: decreased in a concentration-dependent manner | cell viability inhibited [3]: 60.8% | IC50 [4]: 490 nM | IC50 (TNKS-1): 18 nM | inhibition at 10 µM (TNKS-1): ≥ 95% | expression levels of beta-catenin subgenes (AXIN2, CCND1, cMYC, FGF20) [5]: inhibited the expression levels of beta-catenin subgenes | IC50 (TNKS-2): 4 nM

N#Cc1ccccc1N1CCC(CCC(=O)Nc2cccc3[nH]ccc23)CC1 [TI-62126]
inhibition at 10 µM (TNKS-1): 1 ± 1.7%

CN(CC(=O)Nc1nnc2ccccn12)C1CCN(c2ccccc2C#N)CC1 [TI-62199, N-([1,2,4]triazolo[4,3-a]pyridin-3-yl)-2-((1-(2-cyanophenyl)piperidin-4-yl)(methyl)amino)acetamide]
inhibition at 10 µM (TNKS-1): 98 ± 0.1%
